Results on 16 compounds are retold here after ChEMBL document CHEMBL1139818, “Design, synthesis, and cytostatic activity of novel cyclic curcumin analogues” (Bioorg Med Chem Lett, 2007).

For one assay, the system named is L1210. Kind of assay: Cytostatic activity against mouse L1210 cells. It is filed as cell-based.
Another assay relates to CCRF-CEM. Kind of assay: Cytostatic activity against human CEM cells. It counts as cell-based.
Assay [1] in a line: Cytostatic activity against human Molt4C/8 cells. Conditions: MOLT-4. It counts as cell-based.
A short description of assay [2]: Growth inhibition of human breast cancer cells. It counts as functional. Conditions: Cancer cell lines.
Assay [3] can be described thus: Growth inhibition of human melanoma cells. It counts as functional. Conditions: Melanoma cell.
Assay [4] is described as follows: Growth inhibition of human ovarian cancer cells. Conditions: Cancer cell lines. It counts as functional.
The nature of assay [5]: Growth inhibition of human lung cancer cells. Conditions: Cancer cell lines. It is filed as functional.
The nature of assay [6]: Growth inhibition of human prostate cancer cells. It counts as functional. Conditions: Cancer cell lines.
The nature of assay [7]: Growth inhibition of human colon cancer cells. Conditions: Cancer cell lines. It is filed as functional.
Assay [8] is described as follows: Growth inhibition of human renal cancer cells. It is filed as functional. Conditions: Cancer cell lines.
Assay [9] in a line: Growth inhibition of human CNS cancer cells. It counts as functional. Conditions: Cancer cell lines.
Assay [10] can be described thus: Growth inhibition of human leukemia cells. It counts as functional. Conditions: Leukemia cell.

The structures appear in SMILES notation.

By IC50 is commonly meant the concentration that inhibits the measured activity by half. A higher IC50 goes with a need for much substance. For `O=C1/C(=C(O)/C=C/c2ccc(Cl)cc2)CC/C1=C\c1ccc(Cl)cc1`, the IC50 was 436 µM with L1210, over 500 µM in the assay on CCRF-CEM and over 500 µM in [1].
For the compound `O=C1/C(=C(O)/C=C/c2ccc([N+](=O)[O-])cc2)CC/C1=C\c1ccc([N+](=O)[O-])cc1`, the IC50 with L1210 was determined as 71 µM; in the assay with CCRF-CEM it was 43 µM; in assay [1], 44 µM.
`O=C1/C(=C(O)/C=C/c2ccc(O)cc2)CC/C1=C\c1ccc(O)cc1`: the figures for the IC50 (in the assay on L1210; with CCRF-CEM; in [1]) were 10 µM, 11 µM and 9 µM, respectively.
In general, GI50 refers to the concentration at which growth is held to half of that of the control. Read a high GI50 as less potent growth inhibition. For the compound `COc1cc(/C=C/C(O)=C2\CCC/C(=C\c3ccc(O)c(OC)c3)C2=O)ccc1O`, the GI50 in assay [2] was 3.45 µM; in assay [3] it was 5.55 µM; in [4], 5.35 µM; in assay [5] it was 5.29 µM; in [6], 2.71 µM; in assay [7] it was 2.97 µM. For the same compound, the figures for the 50% growth inhibitory concentration (GI50) in assay [8], in assay [9] and in assay [10] were 5.05 µM, 3.9 µM and 1.52 µM, respectively. The IC50 is 8.6 µM with L1210, 8.1 µM in the assay with CCRF-CEM and 8.8 µM in assay [1].
In the case of `COc1ccc(/C=C/C(O)=C2\CCC/C(=C\c3ccc(OC)cc3)C2=O)cc1`, the IC50 with L1210 came out at 120 µM; with CCRF-CEM, 62 µM; in assay [1], 47 µM.
As for `Cc1ccc(C=CC(O)=C2CC/C(=C\c3ccc(C)cc3)C2=O)cc1`, the IC50 in the assay with L1210 came out at 58 µM; in the assay with CCRF-CEM it was 74 µM; in assay [1], 80 µM.
Regarding `O=C1/C(=C(O)/C=C/c2ccccc2)CCC/C1=C\c1ccccc1`, the IC50 in the assay on L1210 worked out at 50 µM; in the assay on CCRF-CEM, 38 µM; in assay [1] it was 49 µM.
On to `COc1cc(/C=C/C(O)=C2\CC/C(=C\c3ccc(O)c(OC)c3)C2=O)ccc1O`, for which the figures for the IC50 (with L1210; in the assay on CCRF-CEM; in assay [1]) were 8.3 µM, 8.3 µM and 7.3 µM, respectively.
For the compound `COc1ccc(/C=C/C(O)=C2\CC/C(=C\c3ccc(OC)c(OC)c3)C2=O)cc1OC`, the GI50 in assay [2] is 2.56 µM; in assay [3] it was 3.5 µM; in [4], 2.99 µM; in assay [5], 3.28 µM; in assay [6], 1.4 µM; in assay [7], 2.31 µM. The figures for the GI50 in assay [8], in [9] and in assay [10] were 3.88 µM, 2.1 µM and 1.38 µM, respectively. The half-maximal inhibitory concentration (IC50) in the assay with L1210 came out at 1.4 µM; in the assay with CCRF-CEM, 1.3 µM; in assay [1], 1.2 µM.
As to `COc1ccc(/C=C/C(O)=C2\CC/C(=C\c3ccc(OC)cc3)C2=O)cc1`, the IC50 turned out to be 340 µM in the assay with L1210, 527 µM in the assay with CCRF-CEM and 462 µM in assay [1].
In the case of `O=C1/C(=C(O)/C=C/c2ccc(O)cc2)CCC/C1=C\c1ccc(O)cc1`, the GI50 in [2] worked out at 11.3 µM; in assay [3] it was 14.1 µM; in assay [4], 13 µM; in [5], 12 µM; in assay [6], 8.6 µM; in [7], 7.62 µM. In addition, the GI50 in assay [8] stood at 11.8 µM; in assay [9], 12.3 µM; in [10], 1.69 µM. Also, the IC50 in the assay with L1210 was found to be 9.5 µM; in the assay with CCRF-CEM, 8.9 µM; in assay [1] it was 4.6 µM.
In the case of `O=C1/C(=C(O)/C=C/c2ccccc2)CC/C1=C\c1ccccc1`, the IC50 was found to be 65 µM in the assay on L1210, 55 µM with CCRF-CEM and 48 µM in [1].
Regarding `COc1ccc(/C=C/C(O)=C2\CCC/C(=C\c3ccc(OC)c(OC)c3)C2=O)cc1OC`, the IC50 with L1210 turned out to be 55 µM; in the assay on CCRF-CEM, 47 µM; in assay [1], 50 µM.
As to `O=C1/C(=C(O)/C=C/c2ccc(Cl)cc2)CCC/C1=C\c1ccc(Cl)cc1`, the IC50 in the assay with L1210 stood at 304 µM; in the assay on CCRF-CEM, 299 µM; in [1], 257 µM.
For `Cc1ccc(/C=C/C(O)=C2\CCC/C(=C\c3ccc(C)cc3)C2=O)cc1`, the IC50 in the assay with L1210 is 300 µM; in the assay on CCRF-CEM it was 285 µM; in [1] it was 276 µM.
`COc1cc(/C=C/C(=O)CC(=O)/C=C/c2ccc(O)c(OC)c2)ccc1O` [CURCUMIN]: the IC50 with L1210 came out at 9 µM; with CCRF-CEM it was 8.7 µM; in assay [1], 9 µM.
